One compound from US9980976B2, “Use of REDD1 inhibitors to dissociate therapeutic and adverse atrophogenic effects of glucocorticoid receptor agonists” (Northwestern University, priority 2015, dated 2018) can be followed below.

One test relates to REDD1. In words: REDD1 expression in mouse epidermis and s.c. adipose (Q-PCR, Western blot, immunostaining). The format is in vivo. As to the method:
FIG. 16. […] F1 C57B1×129 mice were treated topically with solvent (control), FA ((2 μg/mouse×8 hrs) or pretreated with Rapamycin (500 nmol/mouse×6 hrs) followed by FA treatment for 8 h. RNA and whole cell proteins were extracted from epidermis isolated as described in Matherials and Methods. A. Q-PCR analysis of REDD1 expression. The results were normalized to the expression of the housekeeping Rp127 gene, and presented as fold of change compared to control animals. The means+/−SD calculated for three individual RNA samples/condition. a—Statistically significant difference (P<0.05) compared to control; b—Statistically significant differences (P<0.05) compared to FA treatment. B. Western blot analysis of whole cell proteins in epidermis. Membranes were probed with anti-GAPDH antibodies to verify equal protein loading and transfer. C. Ear edema test. Ear edema was induced by croton oil (CO, 20 ul/ear) as in Materials and Methods. Solvent (20 ul/ear) or FA (1 ug/ear) were applied 1 h before CO after 6 hrs of pre-treatment with rapamycin (200 ng/ear) or solvent. Mice were sacrificed and four-millimeter ear punches were weighed 9 h after CO application to assess swelling. Ear punch weight results are presented as % to control (only solvent treatment) ear weight The means+/−SD were calculated for six individual ear punches/condition in one representative experiment (out of three experiments). a—Statistically significant differences (P<0.05) compared to control treatment; b—Statistically significant differences (P<0.05) compared to CO or CO+rapa treatment.
Seven-week-old females in the telogen stage of the hair cycle were shaved and treated 3 days later. Glucocorticoid FA was applied topically (2 μg/animal) in 200 μl acetone to the back skin once or up to four times every third day as described (Chebotaev et al, 2007c). Control animals were treated with acetone only. Animals were injected i.p. with bromodeoxyuridine (BrdU, Sigma-Aldrich, 50 μg/g of animal weight) 1 h before skin was harvested. Epidermis and s.c. fat were isolated from the murine dorsal skin mechanically by scraping (Chebotaev et al, 2007c).
Sections of formalin-fixed, paraffin-embedded skin and ORCs were stained with hematoxylin and eosin (H&E), Masson's trichrome to evaluate the effect on dermis and collagen fibers (Sheehan & Hrapchack, 1980), and with antibodies against BrdU (BD Biosciences, San Jose, Calif., USA), keratins 1, 5, and 10, loricrin (Covance, Princeton, N.J.), phospho-mTORSer2448 (Cell Signaling Technology, Inc., Danvers, Mass., USA), REDD1 (Proteintech Group, Inc, Chicago, Ill.), p63 (eBioscience, San Diego, Calif., USA), and CD34 (Abcam, Cambridge, Mass., USA). […]
In general terms: A western blot detects proteins with antibodies after separation by electrophoresis.

In test [1] the test system is NF-kB dependent genes cyclins D1 and D2, MMP1 and CD74. Briefly: Q-PCR analysis of NF-kB dependent genes in HaCaT and CEM cells. As to conditions: single treatments, 1 uM. It is filed as cell-based, human. As to the method:
FIG. 14. Rapamycin enhances GR transrepression. A, B. Q-PCR analysis of MMP13 and CD74 expression in HaCaT cells (A) and cyclin D1 (CCND1) and cyclin D2 (CCND2) expression in CEM cells (B). Cells were pretreated with solvent or Rapa (1 uM)×6 hrs and treated with solvent (Control) or FA (1 uM) for 24 h. A, B. Q-PCR results were normalized to the expression of the housekeeping Rp127 gene, and presented as fold of change compared to control cells. The means+/−SD calculated for three individual RNA samples/condition. a—Statistically significant difference (P<0.05) compared to control; b—Statistically significant differences (P<0.05) compared to FA treatment. C. […] The means+SD were calculated for three individual wells/group in one representative experiment (out of three experiments). a—Statistically significant differences (P<0.05) in comparison to vehicle treatment; b—Statistically significant differences (P<0.05) in comparison to FA treatment.
Total RNA from murine epidermis, whole human skin, and cell cultures was isolated with RiboPure kit (Ambion, Life Technologies, Grand Island, N.Y., USA). […] The gene expression was assessed using semi-quantitative two-step RT-PCR and quantitative Q-PCR. […] For semi-quantitative PCRs, Taq DNA polymerase (Promega) was used, and PCR products were separated on 1.5% agarose gel and visualized using automated imaging system (Bio-Rad, Hercules, Calif., USA). […]

Regarding `CC1(C)O[C@@H]2C[C@H]3[C@@H]4C[C@H](F)C5=CC(=O)C=C[C@]5(C)[C@@]4(F)[C@@H](O)C[C@]3(C)[C@]2(C(=O)CO)O1` [FA, fluocinolone acetonide], the “REDD1 expression in s.c. adipose versus epidermis” value with REDD1 (B6D2 mice, 24 h after FA, Q-PCR) was “equally activated in s.c. adipose and epidermis”. Also, in the test on REDD1 (F1 C57B1×129 mice, topical FA 2 ug/animal×24 h), the “REDD1 expression in skin” value is recorded as “strongly induced”. Also, the “REDD1 mRNA increase” value in the test with REDD1 (epidermis of B6D2 mice, 4-24 h after the first FA application, Q-PCR) was approximately 4.5 fold. Further, in the test on REDD1 (skin of B6D2 mice, Western blot and immunostaining, single and chronic FA), the REDD1 protein expression result is on record as “induced REDD1 expression as early as 4-8 h after first application”. The “basal expression of NF-kB dependent genes cyclins D1 and D2, MMP1 and CD74” value in test [1] is “inhibited”.
